Like-named read-outs stand apart in the source and are kept apart here. Where a SMILES comes first, the peptide text is derived from it.

Assay [1] relates to HUVECs. In words: NO production in HUVECs. In kind it is cell-based, human. To be noted: 24 h; for NO level: control 34.41 ± 1.27.
Assay [2] relates to HUVECs. In words: ET-1 secretion of HUVECs. In kind it is cell-based, human. To be noted: 24 h; for ET-1 secretion: control 118.68 ± 0.53. The text has this: Skipjack tuna (K. pelamis) muscle was provided by Ningbo Today Food Co., Ltd (China). Sephadex G-25 resins and NO assay kit (Nitrate reductase approach, A012-1) were purchased from Nanjing Jiancheng Bioengineering Institute (China). ET-1 ELISA Kit (HM10108) was purchased from Shanghai Qiaodu Biotechnology Co. Ltd. (China).Trypsase (≥20,000 U/g), pepsase (≥500,000 U/g), papain (≥400,000 U/g), ACE (A6778) and N-[3-(2-Furyl) acryloyl]-Phe-Gly-Gly (FAPGG, F713) were purchased from Sigma-Aldrich (Shanghai) Trading Co., Ltd. (China). […] ACEi Peptides of (TMAP1-TMAP6) with purity higher than 98% were synthesized in Shanghai Apeptide Co. Ltd. (China).
The NO and ET-1 contents of HUVECs were determined after a 24 h treatment of ACEi peptides. […] NO and ET-1 production in treated cells were measured by employing human NO and ET-1 assay kit as manufactures’ protocol, separately.

Assay [3] has as its target T1, ACE (Oryctolagus cuniculus, UniProt P12822).
T1 construct: purchased Sigma-Aldrich (Shanghai) Trading Co., Ltd. A6778
T1 sequence (P12822 34-1310): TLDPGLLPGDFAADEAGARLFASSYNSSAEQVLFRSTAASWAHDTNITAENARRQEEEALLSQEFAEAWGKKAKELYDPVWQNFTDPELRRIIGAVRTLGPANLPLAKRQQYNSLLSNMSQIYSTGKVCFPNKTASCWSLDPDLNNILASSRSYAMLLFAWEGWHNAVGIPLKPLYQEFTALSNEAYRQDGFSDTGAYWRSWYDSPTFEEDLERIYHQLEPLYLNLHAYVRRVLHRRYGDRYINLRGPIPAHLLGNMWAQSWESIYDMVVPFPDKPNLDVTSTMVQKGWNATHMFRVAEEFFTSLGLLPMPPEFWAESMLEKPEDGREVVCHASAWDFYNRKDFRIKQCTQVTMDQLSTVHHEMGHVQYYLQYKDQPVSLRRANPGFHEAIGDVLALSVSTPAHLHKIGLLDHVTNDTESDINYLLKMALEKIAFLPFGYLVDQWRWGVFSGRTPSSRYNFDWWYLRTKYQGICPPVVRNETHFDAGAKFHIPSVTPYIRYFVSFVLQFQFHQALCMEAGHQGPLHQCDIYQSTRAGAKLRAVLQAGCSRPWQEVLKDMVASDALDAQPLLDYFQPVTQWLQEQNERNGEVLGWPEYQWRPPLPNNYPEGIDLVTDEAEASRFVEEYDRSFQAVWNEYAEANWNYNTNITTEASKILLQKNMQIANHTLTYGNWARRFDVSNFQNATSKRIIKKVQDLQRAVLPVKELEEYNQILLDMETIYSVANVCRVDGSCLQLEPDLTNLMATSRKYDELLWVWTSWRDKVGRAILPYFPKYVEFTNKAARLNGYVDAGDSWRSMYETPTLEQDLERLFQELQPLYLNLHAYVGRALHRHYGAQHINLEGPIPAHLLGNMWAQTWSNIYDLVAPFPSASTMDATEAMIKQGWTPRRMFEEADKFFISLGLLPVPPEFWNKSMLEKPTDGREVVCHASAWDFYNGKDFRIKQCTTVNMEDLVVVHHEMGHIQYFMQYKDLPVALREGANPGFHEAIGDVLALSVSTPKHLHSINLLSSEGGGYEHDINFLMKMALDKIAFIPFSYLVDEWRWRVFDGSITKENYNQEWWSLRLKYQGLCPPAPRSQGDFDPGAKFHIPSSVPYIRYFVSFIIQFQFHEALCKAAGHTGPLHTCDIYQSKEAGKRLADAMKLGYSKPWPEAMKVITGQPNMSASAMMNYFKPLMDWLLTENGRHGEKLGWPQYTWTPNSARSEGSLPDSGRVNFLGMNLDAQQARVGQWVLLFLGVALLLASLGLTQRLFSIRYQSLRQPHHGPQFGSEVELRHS
To be noted: cited from earlier work. The text has this: Among these peptides, ACEi peptides represent a promising alternative to synthetic drugs to control hypertension. For instance, canary seed peptides (CSP) have great potential as anti-hypertensive and anti-obesity agents due to their inhibition activity on ACE and pancreatic lipase, and their non-competitive inhibitory activity was due to their destabilization of the transition state and Zn(II) coordination in ACE [13]. […] Auwal et al. illustrated that branched aliphatic or dicarboxylic amino acids (Val, Ala, Ile, and Leu) at the N-terminus could strengthen ACEi ability of peptides. Then, Val residue at the N-terminus of TMAP2 could improve its ACEi ability. […] Therefore, Ser residue, especially its hydroxyl group, should play a vital effect in the ACEi capability of ...

The target of assay [4] is T1, ACE. The arrangement: method as in 3 sources, ref 47 = [47]; doi:10.1016/j.lwt.2016.08.047; 47. Wang X. Chen H. Fu X. Li S. Wei J. A novel antioxidant and ACE inhibitory peptide from rice bran protein: Biochemical characterization and molecular docking study LWT-Food Sci.Technol. 2017 75 93 ||| ref 12 = [12]; PMID 31353484; doi:10.1111/jfbc.12572; 12. Fan H. Liao W. Wu J. Molecular interactions, bioavailability, and cellular mechanisms of angiotensin-converting enzyme inhibitory peptides J. Food Biochem. 2019 43 e12572 10.1111/jfbc.12572 313534 ||| ref 51 = [51]; PMID 28873590; doi:10.1016/j.foodchem.2017.06.112; 51. Abdelhedi O. Nasri R. Mora L. Jridi M. Toldra F. Nasri M. In silico analysis and molecular docking study of angiotensin I-converting enzyme inhibitory peptides from smooth-hound viscera protein hy. To be noted: docking; cited from earlier work.

The target of assay [5] is T2, angiotensin-I-converting enzyme (ACE) (UniProt P12822).
T2 sequence: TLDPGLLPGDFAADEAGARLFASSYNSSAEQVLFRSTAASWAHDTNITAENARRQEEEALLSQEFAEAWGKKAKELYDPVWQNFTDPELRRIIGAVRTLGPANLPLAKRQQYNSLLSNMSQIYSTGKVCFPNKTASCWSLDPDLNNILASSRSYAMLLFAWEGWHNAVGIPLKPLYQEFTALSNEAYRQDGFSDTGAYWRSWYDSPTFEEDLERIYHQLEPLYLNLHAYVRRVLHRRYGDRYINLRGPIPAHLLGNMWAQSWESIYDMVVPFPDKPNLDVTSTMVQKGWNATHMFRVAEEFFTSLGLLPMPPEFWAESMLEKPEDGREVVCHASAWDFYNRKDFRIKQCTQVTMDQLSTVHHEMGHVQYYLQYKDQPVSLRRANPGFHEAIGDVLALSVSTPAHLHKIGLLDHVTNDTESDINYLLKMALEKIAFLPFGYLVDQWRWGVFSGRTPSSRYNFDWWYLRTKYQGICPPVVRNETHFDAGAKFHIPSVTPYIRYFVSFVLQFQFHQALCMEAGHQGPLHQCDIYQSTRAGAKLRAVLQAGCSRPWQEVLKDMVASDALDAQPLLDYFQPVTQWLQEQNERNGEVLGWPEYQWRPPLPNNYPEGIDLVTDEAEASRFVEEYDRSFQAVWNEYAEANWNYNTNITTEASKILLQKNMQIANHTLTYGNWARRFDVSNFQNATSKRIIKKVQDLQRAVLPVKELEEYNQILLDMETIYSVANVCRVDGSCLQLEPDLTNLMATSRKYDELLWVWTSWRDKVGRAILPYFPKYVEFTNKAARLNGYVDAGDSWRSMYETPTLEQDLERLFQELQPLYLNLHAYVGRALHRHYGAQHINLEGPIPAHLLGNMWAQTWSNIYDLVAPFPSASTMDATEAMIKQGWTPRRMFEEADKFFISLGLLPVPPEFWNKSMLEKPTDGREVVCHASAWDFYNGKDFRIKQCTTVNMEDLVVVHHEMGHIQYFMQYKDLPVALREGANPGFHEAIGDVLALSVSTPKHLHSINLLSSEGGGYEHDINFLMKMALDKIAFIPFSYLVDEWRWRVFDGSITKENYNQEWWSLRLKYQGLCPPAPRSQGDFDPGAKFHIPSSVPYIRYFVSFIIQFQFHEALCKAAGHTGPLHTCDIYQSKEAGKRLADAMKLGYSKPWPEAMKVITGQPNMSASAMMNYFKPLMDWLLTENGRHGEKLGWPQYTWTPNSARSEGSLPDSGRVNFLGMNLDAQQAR

In the assay on HUVECs [1] (Cap positive control (1 μM per method), p < 0.001), `C[C@H](CS)C(=O)N1CCC[C@H]1C(=O)O` [Cap, captopril] gave an NO level of 65.96 ± 1.83 μmol/gprot. This molecule yielded an ET-1 secretion in the assay with HUVECs [2] (0.5 μM Cap, p < 0.001) of 84.16 ± 1.18 pg/mL.

In the assay on HUVECs [1] (NE 0.5 μM, p < 0.001), `NC[C@H](O)c1ccc(O)c(O)c1` [NE, norepinephrine] gave an NO level of 24.25 ± 0.63 μmol/gprot. Besides, in the assay with HUVECs [2] (NE 0.5 μM, p < 0.01), the ET-1 secretion is 140.23 ± 5.81 pg/mL.

As for `N[C@@H](CO)C(=O)N1CCC[C@H]1C(=O)O` [TMAP1, Ser-Pro] (H-Ser-Pro-OH), the “reversal of NE-reduced NO content” value with HUVECs [1] (200 μM peptide with NE (0.5 μM), p < 0.001 vs NE) is “partially offset”. In addition, the NO level in the assay on HUVECs [1] (400 μM, p < 0.001) was determined as 57.25 ± 2.31 μmol/gprot. For the same molecule, in the assay on HUVECs [1] (100, 200 and 400 μM, p < 0.001), the “NO level vs control group” value is on record as “significantly increased”. In addition, in the assay on HUVECs [2] (200 μM peptide with NE (0.5 μM), NE alone 140.23 ± 5.81, p < 0.01), the “ET-1 secretion with NE” value is 114.08 ± 5.82 pg/mL. Besides, the ET-1 secretion in the assay on HUVECs [2] (400 μM) worked out at 94.86 ± 0.39 pg/mL. In addition, the “ET-1 secretion vs control group” value with HUVECs [2] (tested concentrations (100–400 μM), p < 0.001 or p < 0.01) is given as “decreased”.

In the case of “AGPPGSDGQPGA [ACEi peptide from lizardfish]”, in the assay with ACE [3] (lizardfish peptide), the IC50 – broadly, the concentration at which inhibition is half-maximal – is 544 µg/mL.

Regarding “ALPMHIR [larger peptide composed of 7–11 amino acid residues]”, at ACE [4], the “interaction with ACE channel / active site” value is “showed low interaction scores”.

For “AVVPPSDKM [larger peptide composed of 7–11 amino acid residues]”, the “interaction with ACE channel / active site” value on ACE [4] was “showed low interaction scores”.

Consider EHPVL [ACEi peptide from stone fish], for which, on ACE [3] (stone fish peptides), the IC50 was 1680 µM.

Take EVLIQ [ACEi peptide from stone fish]: the IC50 in the assay with ACE [3] (stone fish peptides) is 1440 µM.

On to “GPAGPRGPAG [larger peptide composed of 7–11 amino acid residues]”, for which the “interaction with ACE channel / active site” value on ACE [4] is recorded as “showed low interaction scores”.

For “HWTTQR [ACEi peptide from seaweed pipefish]”, the IC50 with ACE [3] (seaweed pipefish peptide) is 1440 µM.

Regarding LAPPTM [ACEi peptide from stone fish], in the assay with ACE [3] (stone fish peptides), the IC50 is 1310 µM.

With LGPLGHQ [ACEi peptide from skate], the IC50 with ACE [3] (skate peptides) was 4.22 µM.

In the case of MVGSAPGVL [ACEi peptide from skate], the IC50 with ACE [3] (skate peptides) was 3.09 µM.

Regarding Phe-Glu-Met (FEM) (peptide), the IC50 of ACE inhibitory (ACEi) activity; enzyme assay with FAPGG as substrate, Tris-HCl 50 mM pH 8.3, 300 mM NaCl, 37 °C, product measured by HPLC in assay [5] came out at 2.18 mg/mL.

On to SPRCR [ACEi peptide with Ser residue], for which the IC50 with ACE [3] was 41 µM.

The molecule Ser-Pro (SP) (peptide) registered an IC50 of ACE inhibitory (ACEi) activity; enzyme assay with FAPGG as substrate, Tris-HCl 50 mM pH 8.3, 300 mM NaCl, 37 °C, product measured by HPLC in assay [5] of 0.06 mg/mL.

For “TTMYPGIA [larger peptide composed of 7–11 amino acid residues]”, on ACE [4], the “interaction with ACE channel / active site” value is reported as “showed low interaction scores”.

Tyr-Glu (YE) (peptide): the IC50 of ACE inhibitory (ACEi) activity; enzyme assay with FAPGG as substrate, Tris-HCl 50 mM pH 8.3, 300 mM NaCl, 37 °C, product measured by HPLC in assay [5] was 0.8 mg/mL.

Turning to “VKPLPQSG [larger peptide composed of 7–11 amino acid residues]”, the “interaction with ACE channel / active site” value at ACE [4] was “showed low interaction scores”.

As to VSQLTR [ACEi peptide with Ser residue], the IC50 with ACE [3] is 105 µM.

As to FWRV [Phe-Trp-Arg-Val (FWRV)], in assay [5], the IC50 of ACE inhibitory (ACEi) activity; enzyme assay with FAPGG as substrate, Tris-HCl 50 mM pH 8.3, 300 mM NaCl, 37 °C, product measured by HPLC turned out to be 0.76 mg/mL.

Molecule VHGVV [Val-His-Gly-Val-Val (VHGVV)] registered an IC50 of ACE inhibitory (ACEi) activity; enzyme assay with FAPGG as substrate, Tris-HCl 50 mM pH 8.3, 300 mM NaCl, 37 °C, product measured by HPLC in assay [5] of 0.9 mg/mL.

Take VDRYF [Val-Asp-Arg-Tyr-Phe (VDRYF)]: the IC50 of ACE inhibitory (ACEi) activity; enzyme assay with FAPGG as substrate, Tris-HCl 50 mM pH 8.3, 300 mM NaCl, 37 °C, product measured by HPLC in assay [5] was determined as 0.28 mg/mL.

The values above are taken from PMC8954214, “Preparation, Identification, Molecular Docking Study and Protective Function on HUVECs of Novel ACE Inhibitory Peptides from Protein Hydrolysate of Skipjack Tuna Muscle” (Marine Drugs, 2022).
